Results from US20200121697A1, “METHODS FOR DIAGNOSING AND TREATING CACHEXIA” (Aurin Biotech Inc., priority 2017, published 2020).
One block for each compound: values may come before it.

Columns and labels:
TNFα [1] = molecular target: TNFα (Homo sapiens, UniProt P01375); experiment: Binding of APAC and DAS to TNFα / TNFα peptide; settings: 0-5 nmol/ml of DAS and 0-175 nmol/ml of TNFα peptide, FIG. 10
Method: (§1) A 12-mer peptide spot array was synthesized on a cellulose membrane using a Semi-automated AutoSpot robot (INTAVIS, USA) covering the 233 amino acid sequence of TNFα. A total of 112 peptides, each shifted by 2 amino acids were synthesized. The TNFα membrane was soaked in 50% methanol in 10 mM PBS (pH7.4) for 2 minutes, then washed twice with PBS. The membrane was then incubated with 1 mM of APAC or DAS in PBS (10 mM, pH7.4) for one hour at 37° C. After washing 3 times with PBS, positive images were captured with a SYPRO Ruby filter for APAC and an Alexa 680 filter for DAS by the Chemidoc MP imaging System (Bio-Rad, USA).
(§2) A strongly positive peptide sequence was chosen for synthesis of a potential inhibitor of TNFα binding. The sequence of this TNFα-A2 peptide was NH3-YLGGVFQLEKGDRLSA-COOH. It was synthesized using a standard peptide Synthesizer (Liberty Blue, CEM Inc, USA) with Wang Resin and Fmoc amino acids (GL Biochem Ltd, Shanghai, CN). After synthesis, the peptide was purified by HPLC on a C18 column (Quadarupole 6110 LC/MS, Agilent Technology, USA) with a flow phase of 0.5% trifluroacetic acid (TFA) in acetonitrile to 0.05% TFA in H2O. The eluted peptide was detected by ultraviolet light (280 nm). The peptide inhibited binding of APAC to TNFα (FIG. 9) and of DAS to TNFα (FIG. 10).

salivary TNFα = experiment: Salivary TNFα levels (ELISA) and cachexia symptoms in cachexic cancer patients under oral treatment; type: in vivo, human
Excerpt: Endogenous TNFα production can be measured by ELISA. The data reported herein used the Peprotech human TNFα kit (catalog 900-T25) following directions of the manufacturer. Alternative ELISA methods, not relying on commercial manufacturers, could be employed. […] This standard curve was used to calculate TNFα production in various organs and in saliva as presented herein.
The stabilization step may involve known methods for stabilizing TNFα, such as those described by Lee et al. (2017), incorporated herein by reference.
The detection step is designed to treat the stabilized saliva sample with an TNFα antibody in such a way as to bind essentially all of the TNFα present in the sample. The detection step may involve an immunoassay, such as an ELISA test based on an antigen-antibody reaction using TNFα as the antigen to be measured. For example, the capture antibody may be a polyclonal antibody specific for TNFα. […] In some embodiments the second TNFα antibody may be a monoclonal antibody, such as a mouse monoclonal antibody. Biotin may then be bound to the monoclonal antibody or to a third IgG antibody to which biotin is bound. The biotin levels are detected by first treating with a streptavidin solution linked with horse radish peroxidase (HRP) followed by treatment with a tetramethylbenzidine solution to detect the HRP by reading the resulting color in a spectrophotometer. An ELISA standard concentration graph of target TNFα may be obtained, for example, by absorbance detection, fluorescence detection, luminescence detection, or electrochemical detection. […] Alternatively, the immunoassay may be performed by a method capable of directly or indirectly detecting TNFα. Examples of such alternative methods include MS (Mass Spectrometry), MS/MS, and liquid chromatography.
The invention can be further understood by reference to the following examples, which are provided by way of illustration and are not meant to be limiting. The examples are of human cancer cases that had become cachexic. The patients had salivary TNFα levels ranging from 405 to 462 pg/ml. The TNFα in these cases was restored to normal levels by treatment with DAS (4,4′-diacetoxy-1,1 biphenyl-3,3′ dicarboxylic acid) or APAC for 10-21 days. […] They also support the fact that complement is required for TNFα production.

TNFα [2] = experiment: Binding of APAC and DAS to TNFα / TNFα peptide
Method: as §1, §2

Compound: CC(=O)Oc1ccc(-c2ccc(OC(C)=O)c(C(=O)O)c2)cc1C(=O)O [DAS, 4,4′-diacetoxy-1,1 biphenyl-3,3′ dicarboxylic acid]
binding of DAS to a TNFα peptide as a function of the peptide concentration (TNFα [1]): linear | symptoms of cachexia (salivary TNFα; Example 4, peritoneal carcinomatosis patient, DAS 3×100 mg/day, Day 12): subsided | salivary TNFα level (salivary TNFα; Example 4, peritoneal carcinomatosis patient, DAS 3×100 mg/day, nine days into treatment (Day 12)): 161 pg/mL | salivary TNFα level (salivary TNFα; Example 4, person, stage IV peritoneal carcinomatosis and cachexia, 394 pg/ml Day 0, 406 pg/ml before start, DAS 3×100 mg/day, five days into treatment (Day 8)): 288 pg/mL | increased salivary TNFα levels of cachexic cancer patients (salivary TNFα; oral intake): rapidly reduced to normal levels | elevated salivary TNFα over time (salivary TNFα; patient with terminal colon cancer, FIG. 14): reversed

Compound: NC(=O)NO [hydroxyurea, reference compound]
salivary TNFα level (salivary TNFα; Example 1, terminal leukemia patient, ten days after APAC discontinued (155 pg/ml on Day 20) and hydroxyurea 500 mg×2/day begun): 228 pg/mL

binding of APAC to TNFα in presence of the peptide (TNFα [2]; FIG. 9): inhibited | binding of DAS to TNFα in presence of the peptide (TNFα [2]; FIG. 10): inhibited
Compound: TNFα-A2 peptide: synthesized TNFα sequence peptide NH3-YLGGVFQLEKGDRLSA-COOH (H-YLGGVFQLEKGDRLSA-OH)
